Molecules are shown by their SMILES. Structures can show the parent of a compound that is named as a salt.

T1 sequence (P37288 whole entry): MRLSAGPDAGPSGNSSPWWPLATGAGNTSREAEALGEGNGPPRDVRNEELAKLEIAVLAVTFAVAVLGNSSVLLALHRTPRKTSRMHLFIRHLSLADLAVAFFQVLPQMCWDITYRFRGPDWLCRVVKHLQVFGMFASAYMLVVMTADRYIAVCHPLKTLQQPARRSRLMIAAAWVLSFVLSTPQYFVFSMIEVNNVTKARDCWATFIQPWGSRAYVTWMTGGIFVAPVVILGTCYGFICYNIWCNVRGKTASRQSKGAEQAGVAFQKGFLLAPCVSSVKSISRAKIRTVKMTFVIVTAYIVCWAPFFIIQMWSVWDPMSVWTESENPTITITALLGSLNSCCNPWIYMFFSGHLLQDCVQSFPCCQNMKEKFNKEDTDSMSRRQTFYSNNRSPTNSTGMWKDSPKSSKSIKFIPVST

This test has as its target T1, human V1a receptor (Homo sapiens, UniProt P37288).
T1 construct: expressed in transfected cells; host or cells: HEK293 cells, transiently transfected; cell membranes
The test is described as follows: human V1a receptor binding studies (3H-Vasopressin, SPA beads). As to conditions: membranes from HEK293 cells transiently transfected with human V1a receptor, Ki calculated from IC50 by the Cheng-Prussoff equation, read-out: pKi (hV1a) (converted). The method, then:
The human V1a receptor was cloned by RT-PCR from total human liver RNA. The coding sequence was subcloned in an expression vector after sequencing to confirm the identity of the amplified sequence. […] Cell membranes were prepared from HEK293 cells transiently transfected with the expression vector and grown in 20 liter fermenters with the following protocol.
50 g of cells are resuspended in 30 ml freshly prepared ice cold Lyses buffer (50 mM HEPES, 1 mM EDTA, 10 mM magnesium dichloride adjusted to pH=7.4+complete cocktail of protease inhibitor (Roche Diagnostics)). Homogenized with Polytron for 1 min and solicited on ice for 2×2 minutes at 80% intensity (Vibrate solicitor). The preparation is centrifuged 20 min at 500 g at 4° C., the pellet is discarded and the supernatant centrifuged 1 hour at 43′000 g at 4° C. (19′000 rpm). The pellet is resuspended in 12.5 ml Lyses buffer+12.5 ml sucrose 20% and homogenized using a Polytron for 1-2 min. The protein concentration is determined by the Bradford method and aliquots are stored at −80° C. until use. For binding studies 60 mg Yttrium silicate SPA beads (Habersham®) are mixed with an aliquot of membrane in binding buffer (50 mM Tris, 120 mM sodium chloride, 5 mM potassium chloride, 2 mM calcium dichloride, 10 mM magnesium dichloride) for 15 minutes with mixing. 50 μl of bead/membrane mixture is then added to each well of a 96 well plate, followed by 50 μl of 4 nM 3H-Vasopressin (American Radiolabeled Chemicals). For total binding measurement 100 μl of binding buffer are added to the respective wells, for non-specific binding 100 μl of 8.4 mM cold vasopressin and for compound testing 100 μl of a serial dilution of each compound in 2% dimethyl sulfoxide. The plate is incubated 1 h at room temperature, centrifuged 1 min at 1000 g and counted on a Packard Top-Count. Non-specific binding counts are subtracted from each well and data is normalized to the maximum specific binding set at 100%. To calculate an IC50 the curve is fitted using a non-linear regression model (XLfit) and the Ki is calculated using the Cheng-Prussoff equation.
For `Fc1cnc([C@H]2CC[C@H](c3nnc4n3-c3ccc(Cl)cc3CNC4)CC2)c(F)c1` [Example 86, trans-8-Chloro-1-[4-(3,5-difluoro-pyridin-2-yl)-cyclohexyl]-5,6-dihydro-4H-2,3,5,10b-tetraaza-benzo[e]azulene], the Ki is 9.33 nM.
The value for `CC(C)(C)OC(=O)N1Cc2cc(Cl)ccc2-n2c(nnc2[C@H]2CC[C@H](c3ncc(F)cc3F)CC2)C1` [Example 85, trans-8-Chloro-1-[4-(3,5-difluoro-pyridin-2-yl)-cyclohexyl]-4H,6H-2,3,5,10b-tetraaza-benzo[e]azulene-5-carboxylic acid tert-butyl ester] was 1.1 nM.
The value for `CC(C)(C)OC(=O)N1Cc2cc(Cl)ccc2-n2c(nnc2[C@H]2CC[C@@H](c3ncccn3)CC2)C1` [Example 58, cis-8-Chloro-1-(4-pyrimidin-2-yl-cyclohexyl)-4H,6H-2,3,5,10b-tetraaza-benzo[e]azulene-5-carboxylic acid tert-butyl ester] was 20.4 nM.
On to `Clc1ccc2c(c1)CNCc1nnc([C@H]3CC[C@H](c4cccc(Cl)n4)CC3)n1-2` [Example 17, trans-8-Chloro-1-[4-(6-chloro-pyridin-2-yl)-cyclohexyl]-5,6-dihydro-4H-2,3,5,10b-tetraaza-benzo[e]azulene], for which the Ki is 2.82 nM.
For `Cc1cc(C)nc([C@H]2CC[C@H](c3nnc4n3-c3ccc(Cl)cc3CN(C(=O)OC(C)(C)C)C4)CC2)n1` [Example 63, trans-8-Chloro-1-[4-(4,6-dimethyl-pyrimidin-2-yl)-cyclohexyl]-4H,6H-2,3,5,10b-tetraaza-benzo[e]azulene-5-carboxylic acid tert-butyl ester] the value was 0.398 nM; for `CC(C)c1cccc([C@H]2CC[C@H](c3nnc4n3-c3ccc(Cl)cc3CNC4)CC2)n1` [Example 11, trans-8-Chloro-1-[4-(6-isopropyl-pyridin-2-yl)-cyclohexyl]-5,6-dihydro-4H-2,3,5,10b-tetraaza-benzo[e]azulene hydrochloride], 70.8 nM; for `CN1Cc2cc(F)ccc2-n2c(nnc2[C@H]2CC[C@H](c3ncccc3F)CC2)C1` [Example 44, trans-8-Fluoro-[4-(3-fluoro-pyridin-2-yl)-cyclohexyl]-5-methyl-5,6-dihydro-4H-2,3,5,10b-tetraaza-benzo[e]azulene], 8.91 nM.
The value for `CC(C)(C)OC(=O)N1Cc2cc(Cl)ccc2-n2c(nnc2[C@H]2CC[C@H](c3ncccc3F)CC2)C1` [Example 28, trans-8-Chloro-1-[4-(3-fluoro-pyridin-2-yl)-cyclohexyl]-4H,6H-2,3,5,10b-tetraaza-benzo[e]azulene-5-carboxylic acid tert-butyl ester] was 0.2 nM; that for `Cc1cncc([C@H]2CC[C@H](c3nnc4n3-c3ccc(Cl)cc3CNC4)CC2)n1` [Example 73, trans-8-Chloro-1-[4-(6-methyl-pyrazin-2-yl)-cyclohexyl]-5,6-dihydro-4H-2,3,5,10b-tetraaza-benzo[e]azulene] was 55 nM; that for `CN1Cc2cc(Cl)ccc2-n2c(nnc2[C@H]2CC[C@H](c3ncc(F)cc3F)CC2)C1` [Example 87, trans-8-Chloro-1-[4-(3,5-difluoro-pyridin-2-yl)-cyclohexyl]-5-methyl-5,6-dihydro-4H-2,3,5,10b-tetraaza-benzo[e]azulene] was 1.29 nM.
For `Clc1ccc2c(c1)CNCc1nnc([C@H]3CC[C@@H](c4ncccn4)CC3)n1-2` [Example 61, cis-8-Chloro-1-(4-pyrimidin-2-yl-cyclohexyl)-5,6-dihydro-4H-2,3,5,10b-tetraaza-benzo[e]azulene] the value was 427 nM; for `CC(C)(C)OC(=O)N1Cc2cc(Cl)ccc2-n2c(nnc2[C@H]2CC[C@H](c3cccnc3Cl)CC2)C1` [Example 51, trans-8-Chloro-1-[4-(2-chloro-pyridin-3-yl)-cyclohexyl]-4H,6H-2,3,5,10b-tetraaza-benzo[e]azulene-5-carboxylic acid tert-butyl ester], 2.19 nM; for `Fc1cccnc1[C@H]1CC[C@H](c2nnc3n2-c2ccc(Cl)cc2CN(CC(F)F)C3)CC1` [Example 34, trans-8-Chloro-5-(2,2-difluoro-ethyl)-[4-(3-fluoro-pyridin-2-yl)-cyclohexyl]-5,6-dihydro-4H-2,3,5,10b-tetraaza-benzo[e]azulene], 0.186 nM.
With `CC(C)c1cccc([C@H]2CC[C@H](c3nnc4n3-c3ccc(Cl)cc3CN(C)C4)CC2)n1` [Example 12, trans-8-Chloro-1-[4-(6-isopropyl-pyridin-2-yl)-cyclohexyl]-5-methyl-5,6-dihydro-4H-2,3,5,10b-tetraaza-benzo[e]azulene], the Ki is 8.51 nM.
The value for `CC(C)(C)OC(=O)N1Cc2cc(Cl)ccc2-n2c(nnc2[C@H]2CC[C@H](c3ccccn3)CC2)C1` [Example 1, trans-8-Chloro-1-(4-pyridin-2-yl-cyclohexyl)-4H,6H-2,3,5,10b-tetraaza-benzo[e]azulene-5-carboxylic acid tert-butyl ester] was 1.91 nM; that for `Cc1nccnc1[C@H]1CC[C@H](c2nnc3n2-c2ccc(Cl)cc2CNC3)CC1` [Example 76, trans-8-Chloro-1-[4-(3-methyl-pyrazin-2-yl)-cyclohexyl]-5,6-dihydro-4H-2,3,5,10b-tetraaza-benzo[e]azulene] was 44.7 nM; that for `CN1Cc2cc(Cl)ccc2-n2c(nnc2[C@H]2CC[C@H](c3cccnc3)CC2)C1` [Example 50, trans-8-Chloro-5-methyl-1-(4-pyridin-3-yl-cyclohexyl)-5,6-dihydro-4H-2,3,5,10b-tetraaza-benzo[e]azulene] was 4.57 nM.
As for `CN1Cc2cc(Cl)ccc2-n2c(nnc2[C@H]2CC[C@H](c3cccnn3)CC2)C1` [Example 81, trans-8-Chloro-5-methyl-1-(4-pyridazin-3-yl-cyclohexyl)-5,6-dihydro-4H-2,3,5,10b-tetraaza-benzo[e]azulene], the Ki was 4.68 nM.
For `Cc1cc(C)nc([C@H]2CC[C@H](c3nnc4n3-c3ccc(Cl)cc3CN(C)C4)CC2)n1` [Example 65, trans-8-Chloro-1-[4-(4,6-dimethyl-pyrimidin-2-yl)-cyclohexyl]-5-methyl-5,6-dihydro-4H-2,3,5,10b-tetraaza-benzo[e]azulene] the value was 2.29 nM.
For `CC(=O)N1Cc2cc(Cl)ccc2-n2c(nnc2[C@H]2CC[C@H](c3ncccc3F)CC2)C1` [Example 37, trans-1-{8-Chloro-1-[4-(3-fluoro-pyridin-2-yl)-cyclohexyl]-4H,6H-2,3,5,10b-tetraaza-benzo[e]azulen-5-yl}-ethanone] the value was 1.62 nM; for `Fc1cccc([C@H]2CC[C@H](c3nnc4n3-c3ccc(Cl)cc3CNC4)CC2)n1` [Example 20, trans-8-Chloro-1-[4-(6-fluoro-pyridin-2-yl)-cyclohexyl]-5,6-dihydro-4H-2,3,5,10b-tetraaza-benzo[e]azulene], 16.6 nM.
For `CC(C)(C)OC(=O)N1Cc2cc(Cl)ccc2-n2c(nnc2[C@H]2CC[C@@H](c3ncccc3F)CC2)C1` [Example 45, cis-8-Chloro-1-[4-(3-fluoro-pyridin-2-yl)-cyclohexyl]-4H,6H-2,3,5,10b-tetraaza-benzo[e]azulene-5-carboxylic acid tert-butyl ester] the value was 5.01 nM; for `Cc1nccnc1[C@H]1CC[C@H](c2nnc3n2-c2ccc(Cl)cc2CN(C)C3)CC1` [Example 77, trans-8-Chloro-5-methyl-1-[4-(3-methyl-pyrazin-2-yl)-cyclohexyl]-5,6-dihydro-4H-2,3,5,10b-tetraaza-benzo[e]azulene], 5.13 nM; for `Fc1ccc([C@H]2CC[C@H](c3nnc4n3-c3ccc(Cl)cc3CNC4)CC2)nc1` [Example 23, trans-8-Chloro-1-[4-(5-fluoro-pyridin-2-yl)-cyclohexyl]-5,6-dihydro-4H-2,3,5,10b-tetraaza-benzo[e]azulene dihydrochloride], 7.24 nM.
`CC(C)(C)OC(=O)N1Cc2cc(Cl)ccc2-n2c(nnc2[C@H]2CC[C@H](c3cccnc3F)CC2)C1` [Example 54, trans-8-Chloro-1-[4-(2-fluoro-pyridin-3-yl)-cyclohexyl]-4H,6H-2,3,5,10b-tetraaza-benzo[e]azulene-5-carboxylic acid tert-butyl ester]: the Ki was 1 nM.
The value for `Cc1cccc([C@H]2CC[C@H](c3nnc4n3-c3ccc(Cl)cc3CNC4)CC2)n1` [Example 5, trans-8-Chloro-1-[4-(6-methyl-pyridin-2-yl)-cyclohexyl]-5,6-dihydro-4H-2,3,5,10b-tetraaza-benzo[e]azulene] was 13.8 nM.
